According to ChEMBL document CHEMBL1201862, “PubChem BioAssay data set” (2004):
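Where inhibition never reached the appropriate level, the endpoint shown equals the highest concentration tested. Otherwise, values were interpolated linearly from a five-concentration, 48-hour dose response in 96-well plates. Abbreviation: GI50, concentration required for 50% inhibition of growth.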 Activity calls are given as the source filed them. No stated cut-off is given here; in the data, active = GI50 up to about 1.1 µM and inactive = higher.

What was measured:
Assay in all cases: inhibition of tumour cell growth, NCI panel, 48 h
[1] = tested on: MDA-N
[2] = tested on: BT-549
[3] = tested on: NCI-H522
[4] = tested on: UACC-257
[5] = tested on: MDA-MB-231
[6] = tested on: HCT-116
[7] = tested on: SF-539
[8] = tested on: MOLT-4
[9] = tested on: HT-29
[10] = tested on: MCF7
[11] = tested on: SNB-19
[12] = tested on: EKVX
[13] = tested on: UACC-62
[14] = tested on: A549
[15] = tested on: RXF 393
[16] = tested on: A498
[17] = tested on: Hs-578T
[18] = tested on: SF-268
[19] = tested on: DU-145
[20] = tested on: NCI-H226
[21] = tested on: COLO 205
[22] = tested on: RPMI-8226
[23] = tested on: HL-60
[24] = tested on: U-251
[25] = tested on: SK-OV-3
[26] = tested on: TK-10
[27] = tested on: NCI-H460
[28] = tested on: OVCAR-5
[29] = tested on: M14
[30] = tested on: SW-620
[31] = tested on: HOP-62
[32] = tested on: SNB-75
[33] = tested on: UO-31
[34] = tested on: CAKI-1
[35] = tested on: SK-MEL-28
[36] = tested on: ACHN
[37] = tested on: K562
[38] = tested on: LOX IMVI
[39] = tested on: NCI-H23
[40] = tested on: MDA-MB-435
[41] = tested on: OVCAR-8
[42] = tested on: SK-MEL-2
[43] = tested on: NCI/ADR-RES
[44] = tested on: CCRF-CEM
[45] = tested on: IGROV-1
[46] = tested on: OVCAR-3
[47] = tested on: HCT-15
[48] = tested on: SF-295
[49] = tested on: KM12
[50] = tested on: SR
[51] = tested on: 786-0
[52] = tested on: SN12C
[53] = tested on: HCC 2998
[54] = tested on: PC-3
[55] = tested on: Malme-3M
[56] = tested on: SK-MEL-5

In the case of `c1ccc(Nn2c(CCCCCCCCc3nnc(COc4ccccc4)n3Nc3ccccc3)nnc2COc2ccccc2)cc1`, the GI50 [1] is reported as 11000 nM (inactive), the GI50 [2] is reported as 58500 nM (inactive) and the GI50 [3] is reported as 16100 nM (inactive). For the same molecule, the GI50 [4] was 13900 nM (inactive), the GI50 [5] was 20000 nM (inactive) and the GI50 [6] was 16200 nM (inactive). For the same molecule, the GI50 [7] was 12800 nM (inactive), the GI50 [8] was 18000 nM (inactive) and the GI50 [9] was 24300 nM (inactive). The GI50 [10] was 11500 nM (inactive), the GI50 [11] was 36900 nM (inactive) and the GI50 [12] was 32700 nM (inactive). For the same molecule, the GI50 [13] was 1740 nM (inactive), the GI50 [14] was 11800 nM (inactive) and the GI50 [15] was 48500 nM (inactive). For the same molecule, the GI50 [16] was 87900 nM (inactive) and the GI50 [17] was 72800 nM (inactive).
With `C/C(=N/NC(=S)N1CCCCC1)c1cccc(/C(C)=N\NC(=S)N2CCCCC2)n1` the GI50 [18] was 3220 nM (inactive), the GI50 [1] was 1510 nM (inactive) and the GI50 [19] was 2230 nM (inactive). For the same molecule, the GI50 [20] was 2050 nM (inactive), the GI50 [21] was 2430 nM (inactive) and the GI50 [22] was 2300 nM (inactive). For the same molecule, the GI50 [23] was 1840 nM (inactive), the GI50 [24] was 2040 nM (inactive) and the GI50 [25] was 1910 nM (inactive). The GI50 [26] was 1800 nM (inactive), the GI50 [27] was 1890 nM (inactive) and the GI50 [28] was 423 nM (active). For the same molecule, the GI50 [2] was 1920 nM (inactive), the GI50 [3] was 1770 nM (inactive) and the GI50 [4] was 2850 nM (inactive). The GI50 [29] was 1940 nM (inactive), the GI50 [30] was 3150 nM (inactive) and the GI50 [5] was 1310 nM (inactive). For the same molecule, the GI50 [31] was 4710 nM (inactive), the GI50 [32] was 2620 nM (inactive) and the GI50 [6] was 1740 nM (inactive). The GI50 [7] was 1920 nM (inactive), the GI50 [33] was 1450 nM (inactive) and the GI50 [34] was 2080 nM (inactive). The GI50 [8] was 2400 nM (inactive), the GI50 [35] was 2010 nM (inactive) and the GI50 [36] was 1460 nM (inactive). For the same molecule, the GI50 [37] was 2280 nM (inactive), the GI50 [38] was 2070 nM (inactive) and the GI50 [39] was 3930 nM (inactive). For the same molecule, the GI50 [40] was 1920 nM (inactive), the GI50 [41] was 1670 nM (inactive) and the GI50 [42] was 2100 nM (inactive). For the same molecule, the GI50 [9] was 2510 nM (inactive), the GI50 [43] was 2060 nM (inactive) and the GI50 [10] was 1860 nM (inactive). The GI50 [44] was 3000 nM (inactive), the GI50 [11] was 2470 nM (inactive) and the GI50 [45] was 1940 nM (inactive). The GI50 [46] was 2210 nM (inactive), the GI50 [12] was 2130 nM (inactive) and the GI50 [47] was 1660 nM. For the same molecule, the GI50 [48] was 1950 nM (inactive), the GI50 [49] was 2330 nM (inactive) and the GI50 [50] was 2070 nM (inactive). The GI50 [13] was 2420 nM (inactive), the GI50 [51] was 2010 nM (inactive) and the GI50 [14] was 3000 nM (inactive). For the same molecule, the GI50 [52] was 1930 nM (inactive), the GI50 [53] was 2330 nM (inactive) and the GI50 [15] was 2260 nM (inactive). The GI50 [16] was 1690 nM (inactive), the GI50 [54] was 1650 nM (inactive) and the GI50 [55] was 2290 nM (inactive). The GI50 [56] was 1950 nM (inactive) and the GI50 [17] was 2380 nM (inactive).
